For one assay, the target named is Acetylcholinesterase (Homo sapiens, UniProt P22303). As to the kind of experiment: Inhibitory potency was evaluated against recombinant human AChE.
A further assay addresses Cholinesterase (Homo sapiens, UniProt P06276). Put plainly: Inhibitory potency was evaluated against isolated Butyrylcholinesterase.

What is called IC50 is the midpoint of a concentration-inhibition curve. Broadly, the Ki is a measure of affinity in units of concentration, obtained from inhibition or displacement.

Sequence of Acetylcholinesterase (P22303 whole entry): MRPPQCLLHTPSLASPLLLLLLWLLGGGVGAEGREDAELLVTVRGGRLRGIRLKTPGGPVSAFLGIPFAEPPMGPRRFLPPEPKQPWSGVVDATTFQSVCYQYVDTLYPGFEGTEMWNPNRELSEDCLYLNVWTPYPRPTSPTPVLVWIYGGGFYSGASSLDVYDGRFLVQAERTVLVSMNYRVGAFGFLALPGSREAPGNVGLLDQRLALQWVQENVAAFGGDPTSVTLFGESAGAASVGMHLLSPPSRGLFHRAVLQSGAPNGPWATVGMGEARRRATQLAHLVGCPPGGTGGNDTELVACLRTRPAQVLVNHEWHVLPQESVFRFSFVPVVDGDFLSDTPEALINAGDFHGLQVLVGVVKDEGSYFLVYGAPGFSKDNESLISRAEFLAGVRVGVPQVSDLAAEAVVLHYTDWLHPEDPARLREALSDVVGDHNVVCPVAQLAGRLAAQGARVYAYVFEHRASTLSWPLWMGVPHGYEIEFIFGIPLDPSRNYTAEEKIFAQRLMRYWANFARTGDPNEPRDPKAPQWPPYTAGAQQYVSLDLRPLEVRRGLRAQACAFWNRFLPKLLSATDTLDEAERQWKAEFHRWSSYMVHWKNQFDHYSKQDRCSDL
Sequence of Cholinesterase (P06276 whole entry): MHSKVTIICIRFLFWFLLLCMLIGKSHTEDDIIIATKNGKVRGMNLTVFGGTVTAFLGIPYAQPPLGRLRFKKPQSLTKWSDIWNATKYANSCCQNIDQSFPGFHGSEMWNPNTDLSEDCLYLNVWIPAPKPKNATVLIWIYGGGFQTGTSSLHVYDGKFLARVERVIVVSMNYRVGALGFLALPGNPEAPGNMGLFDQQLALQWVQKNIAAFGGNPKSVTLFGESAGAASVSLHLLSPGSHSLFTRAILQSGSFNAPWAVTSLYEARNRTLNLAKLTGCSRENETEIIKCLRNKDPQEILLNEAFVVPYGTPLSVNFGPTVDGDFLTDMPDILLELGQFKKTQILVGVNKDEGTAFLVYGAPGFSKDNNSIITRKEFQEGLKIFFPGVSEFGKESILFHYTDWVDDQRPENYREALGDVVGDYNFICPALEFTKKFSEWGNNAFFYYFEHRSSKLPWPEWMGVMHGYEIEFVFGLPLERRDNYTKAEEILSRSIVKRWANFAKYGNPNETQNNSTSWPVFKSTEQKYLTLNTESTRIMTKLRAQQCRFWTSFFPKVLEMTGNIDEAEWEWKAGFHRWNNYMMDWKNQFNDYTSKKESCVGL

Take `COc1cc2cc(-c3ccc(CN(C)Cc4ccccc4)cc3)c(=O)oc2cc1OC`: at Acetylcholinesterase, the half-maximal inhibitory concentration (IC50) worked out at 44.5 nM and the inhibitory constant (Ki) came out at 21.7 nM. This compound returned a concentration for half-maximal inhibition (IC50) at Cholinesterase of 48900 nM.
